We go through seven compounds from paper PMC5981210, “Molecular recognition of wood polyphenols by phase II detoxification enzymes of the white rot Trametes versicolor” (Scientific Reports, 2018).

One assay addresses T1, TvGSTO6S (Trametes versicolor, UniProt A0A384E158).
T1 construct: produced in E. coli Rosetta2 DE3 pLysS; homodimer; serine-type omega GST
T1 sequence (A0A384E158 1-246): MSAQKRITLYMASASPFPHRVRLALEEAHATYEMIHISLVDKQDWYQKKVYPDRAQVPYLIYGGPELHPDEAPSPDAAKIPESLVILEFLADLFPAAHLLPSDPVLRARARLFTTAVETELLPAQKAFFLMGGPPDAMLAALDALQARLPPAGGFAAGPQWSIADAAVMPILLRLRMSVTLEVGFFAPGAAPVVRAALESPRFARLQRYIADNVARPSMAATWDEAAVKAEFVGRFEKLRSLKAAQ
Put plainly: thermal shift assay, SYPRO Orange. The conditions noted are these: 100 µM ligand, 10 µM protein, Tris-HCl pH 8. The class given is binding. From the text: thermal shift assay, SYPRO Orange on TvGSTO6S

Another assay has as its target T2, TvGSTO1S (Trametes versicolor, UniProt R7S9J3).
T2 construct: gene TRAVEDRAFT_75639; produced in E. coli Rosetta2 DE3 pLysS
T2 sequence (R7S9J3 1-256): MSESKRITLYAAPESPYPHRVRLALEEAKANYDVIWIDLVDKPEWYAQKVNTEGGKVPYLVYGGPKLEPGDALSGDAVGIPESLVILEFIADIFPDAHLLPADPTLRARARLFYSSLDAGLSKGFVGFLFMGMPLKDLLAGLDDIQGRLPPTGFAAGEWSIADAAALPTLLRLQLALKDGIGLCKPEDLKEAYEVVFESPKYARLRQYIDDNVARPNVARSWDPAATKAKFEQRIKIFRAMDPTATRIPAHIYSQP
As to the kind of experiment: thermal shift assay, SYPRO Orange. The conditions noted are these: 100 µM ligand, 10 µM protein, Tris-HCl pH 8. Format: binding. From the text: thermal shift assay, SYPRO Orange on TvGSTO1S

For the next assay, the target named is T3, TvGSTO2S (Trametes versicolor, UniProt A0A452CSY5).
T3 construct: gene TRAPUB_12770; produced in E. coli Rosetta2 DE3 pLysS
T3 sequence (A0A452CSY5 1-239): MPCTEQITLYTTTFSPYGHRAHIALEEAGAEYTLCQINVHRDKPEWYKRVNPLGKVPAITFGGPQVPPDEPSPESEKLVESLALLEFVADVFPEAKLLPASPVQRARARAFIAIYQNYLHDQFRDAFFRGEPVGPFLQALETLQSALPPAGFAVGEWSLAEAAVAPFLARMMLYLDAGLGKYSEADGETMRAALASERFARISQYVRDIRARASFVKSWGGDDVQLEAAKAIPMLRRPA
Put plainly: thermal shift assay, SYPRO Orange. Format: binding. As to conditions: 100 µM ligand, 10 µM protein, Tris-HCl pH 8. From the text:
thermal shift assay, SYPRO Orange on TvGSTO2S

The target in another assay is T4, TvGSTO5S (Trametes versicolor, UniProt R7S6M8).
T4 construct: gene TRAVEDRAFT_54358; produced in E. coli Rosetta2 DE3 pLysS
T4 sequence (R7S6M8 1-241): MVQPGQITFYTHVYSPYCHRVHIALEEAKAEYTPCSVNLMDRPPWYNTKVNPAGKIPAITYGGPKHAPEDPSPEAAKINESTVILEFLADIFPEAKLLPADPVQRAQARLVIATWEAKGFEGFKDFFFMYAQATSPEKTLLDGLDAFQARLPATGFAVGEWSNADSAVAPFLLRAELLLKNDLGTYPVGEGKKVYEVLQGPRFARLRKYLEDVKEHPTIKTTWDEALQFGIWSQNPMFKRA
As to the kind of experiment: thermal shift assay, SYPRO Orange. Format: binding. The conditions noted are these: 100 µM ligand, 10 µM protein, Tris-HCl pH 8. From the text: thermal shift assay, SYPRO Orange on TvGSTO5S

The next assay has as its target T5, TvGSTO3S (Trametes versicolor, UniProt A0A384E145).
T5 construct: produced in E. coli Rosetta2 DE3 pLysS; homodimer; serine-type omega GST
T5 sequence (A0A384E145 1-240): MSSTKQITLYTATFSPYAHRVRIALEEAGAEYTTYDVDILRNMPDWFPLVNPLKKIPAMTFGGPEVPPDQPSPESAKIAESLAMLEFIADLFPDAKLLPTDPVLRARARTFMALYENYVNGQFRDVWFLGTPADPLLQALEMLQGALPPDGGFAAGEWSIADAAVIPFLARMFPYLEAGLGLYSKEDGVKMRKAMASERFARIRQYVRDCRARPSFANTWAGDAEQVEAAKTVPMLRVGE
Put plainly: inhibition of GSH-transferase activity, mixed model fit. Format: biochemical. The conditions noted are these: PEITC 25–300 µM as substrate, 1 mM GSH, 100 mM phosphate pH 6.4, 25 °C.

Assay [1] deals with Trametes versicolor glutathione transferase Omega 3S (TvGSTO3S) (Trametes versicolor). Put plainly: crystal structure; TvGSTO3S (13 mg/mL) crystallised by microbatch under oil at 278 K; 30% (w/v) PEG 400, 0.2 M calcium acetate, 0.1 M acetate buffer pH 4.5; apo and ligand complexes; homodimer in the crystal.
The target in assay [2] is Trametes versicolor glutathione transferase Omega 6S (TvGSTO6S) (Trametes versicolor). As to the kind of experiment: crystal structure; TvGSTO6S (26 mg/mL) crystallised by hanging drop with seeding; 25% (w/v) PEG 1500, 0.1 M MMT buffer pH 6.5; apo and naringenin complex ('dry soaking'); homodimer in the crystal.

As for `O=C(c1ccc(O)cc1O)c1ccc(O)cc1O` [2,2′,4,4′-Tetrahydroxy benzophenone], the TvGSTO6S at TvGSTO6S was determined as 3.40 °C. Moreover, the TvGSTO1S at TvGSTO1S was determined as 3.74 °C. On to `O=C(c1ccccc1)c1ccc(O)c(O)c1O` [2,3,4-Trihydroxy benzophenone], for which the TvGSTO6S at TvGSTO6S turned out to be 4.15 °C. In addition, at TvGSTO2S, the TvGSTO2S stood at 2.92 °C. Further, the TvGSTO5S on TvGSTO5S was -12.89 °C. Take `O=C(c1ccc(O)cc1)c1ccc(O)cc1O` [2,4,4′-Trihydroxy benzophenone]: the TvGSTO1S on TvGSTO1S was 2.74 °C.

With `O=C(c1ccccc1)c1ccc(O)cc1O` [2,4-Dihydroxy benzophenone], the TvGSTO2S at TvGSTO2S was found to be 2.56 °C. For orientation: Ki means a dissociation constant, usually derived from enzyme kinetics or from competition with a known ligand. `COc1c(O)cc(O)c2c(=O)cc(-c3ccccc3)oc12` [wogonin] had a Ki at TvGSTO3S of 2890 ± 1240 nM.

As usually defined, the stoichiometry N is the number of molecules, sites or subunits per partner or assembly. For “Trametes versicolor glutathione transferase Omega 3S (TvGSTO3S) (enzyme)”, in assay [1], the stoichiometry N was determined as 2. Regarding “Trametes versicolor glutathione transferase Omega 6S (TvGSTO6S) (enzyme)”, the stoichiometry N in assay [2] came out at 2.
